Test results published in ChEMBL document CHEMBL1152560, “Substituted 2-arylbenzothiazoles as kinase inhibitors: hit-to-lead optimization” (Bioorg Med Chem, 2009).

What was measured:
[1] = target: Tyrosine-protein kinase Lyn (Homo sapiens) (UniProt P07948); experiment: Residual activity of LYN at 0.1 uM by microplate scintillation counting
[2] = target: Eukaryotic translation initiation factor 2-alpha kinase 1 (Homo sapiens) (UniProt Q9BQI3); experiment: Residual activity of HRI at 0.1 uM by microplate scintillation counting
[3] = target: Death-associated protein kinase 3 (Homo sapiens) (UniProt O43293); experiment: Residual activity of DAPK3 at 1 uM by microplate scintillation counting
[4] = target: Cyclin-dependent kinase 2/cyclin A (Homo sapiens) (UniProt P24941+P20248+P78396); experiment: Residual activity of CDK2/Cyclin A at 10 uM by microplate scintillation counting; type: protein-complex assay
[5] = target: T1, Tyrosine-protein kinase receptor TYRO3 (Homo sapiens) (UniProt Q06418); experiment: Residual activity of TYRO3 at 0.1 uM by microplate scintillation counting
T1 sequence (whole entry): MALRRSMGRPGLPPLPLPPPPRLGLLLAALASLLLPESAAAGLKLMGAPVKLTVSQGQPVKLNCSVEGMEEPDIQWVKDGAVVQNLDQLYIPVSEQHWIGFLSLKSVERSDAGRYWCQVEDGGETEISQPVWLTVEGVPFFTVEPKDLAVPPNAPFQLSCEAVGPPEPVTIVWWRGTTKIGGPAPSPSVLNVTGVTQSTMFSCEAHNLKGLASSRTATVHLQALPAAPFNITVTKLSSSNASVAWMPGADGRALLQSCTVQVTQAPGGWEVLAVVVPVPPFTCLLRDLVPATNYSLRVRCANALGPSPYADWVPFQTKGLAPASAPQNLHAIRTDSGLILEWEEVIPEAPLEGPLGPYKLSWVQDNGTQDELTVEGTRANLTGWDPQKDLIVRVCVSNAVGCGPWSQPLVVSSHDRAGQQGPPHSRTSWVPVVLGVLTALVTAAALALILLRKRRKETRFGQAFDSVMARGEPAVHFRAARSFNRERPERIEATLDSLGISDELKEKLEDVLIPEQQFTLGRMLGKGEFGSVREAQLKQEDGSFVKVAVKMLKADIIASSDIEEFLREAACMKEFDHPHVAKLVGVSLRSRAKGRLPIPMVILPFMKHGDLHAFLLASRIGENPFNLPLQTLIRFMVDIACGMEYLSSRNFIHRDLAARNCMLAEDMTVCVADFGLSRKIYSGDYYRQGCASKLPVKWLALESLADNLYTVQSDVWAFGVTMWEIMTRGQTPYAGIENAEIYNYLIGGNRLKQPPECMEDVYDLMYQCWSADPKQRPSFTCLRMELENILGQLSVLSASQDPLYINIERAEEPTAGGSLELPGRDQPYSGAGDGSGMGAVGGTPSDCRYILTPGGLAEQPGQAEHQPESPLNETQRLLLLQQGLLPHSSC

[6] = target: T2, Serine/threonine-protein kinase Nek3 (Homo sapiens) (UniProt P51956); experiment: Residual activity of NEK3 at 1 uM by microplate scintillation counting
T2 sequence (whole entry): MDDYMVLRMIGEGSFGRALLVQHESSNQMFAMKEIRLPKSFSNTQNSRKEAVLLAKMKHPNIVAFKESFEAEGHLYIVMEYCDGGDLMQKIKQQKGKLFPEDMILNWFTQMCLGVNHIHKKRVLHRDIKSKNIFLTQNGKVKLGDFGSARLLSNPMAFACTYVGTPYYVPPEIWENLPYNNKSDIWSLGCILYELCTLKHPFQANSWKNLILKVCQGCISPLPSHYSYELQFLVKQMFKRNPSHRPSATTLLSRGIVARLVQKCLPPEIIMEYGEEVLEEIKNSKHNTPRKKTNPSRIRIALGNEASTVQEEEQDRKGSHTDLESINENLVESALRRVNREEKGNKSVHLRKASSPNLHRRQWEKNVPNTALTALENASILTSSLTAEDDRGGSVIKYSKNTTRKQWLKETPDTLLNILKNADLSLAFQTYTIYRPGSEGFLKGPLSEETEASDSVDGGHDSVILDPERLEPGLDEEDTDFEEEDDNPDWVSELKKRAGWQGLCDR

[7] = target: T3, Protein kinase C epsilon type (Homo sapiens) (UniProt Q02156); experiment: Residual activity of PKCepsilon at 10 uM by microplate scintillation counting
T3 sequence (whole entry): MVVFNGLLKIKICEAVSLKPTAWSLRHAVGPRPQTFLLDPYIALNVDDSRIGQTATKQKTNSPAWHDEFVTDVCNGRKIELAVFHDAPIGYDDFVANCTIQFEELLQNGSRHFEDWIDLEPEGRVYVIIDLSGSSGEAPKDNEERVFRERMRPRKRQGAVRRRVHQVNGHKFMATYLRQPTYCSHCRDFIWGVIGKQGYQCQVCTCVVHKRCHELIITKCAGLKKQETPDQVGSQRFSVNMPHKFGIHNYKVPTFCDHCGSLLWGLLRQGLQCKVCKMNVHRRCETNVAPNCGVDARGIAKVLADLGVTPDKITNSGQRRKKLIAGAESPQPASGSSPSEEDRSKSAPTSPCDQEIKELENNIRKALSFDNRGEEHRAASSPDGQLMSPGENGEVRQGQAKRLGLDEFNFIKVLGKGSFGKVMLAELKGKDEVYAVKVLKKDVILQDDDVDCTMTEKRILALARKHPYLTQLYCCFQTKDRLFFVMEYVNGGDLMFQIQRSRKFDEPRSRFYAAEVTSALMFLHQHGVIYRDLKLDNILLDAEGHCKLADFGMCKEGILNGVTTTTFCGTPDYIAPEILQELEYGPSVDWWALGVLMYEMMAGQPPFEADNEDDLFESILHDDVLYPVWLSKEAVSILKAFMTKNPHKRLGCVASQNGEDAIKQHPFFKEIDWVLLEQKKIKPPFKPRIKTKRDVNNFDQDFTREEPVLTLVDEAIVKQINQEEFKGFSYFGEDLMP

[8] = target: Tyrosine-protein kinase Fgr (Homo sapiens) (UniProt P09769); experiment: Residual activity of FGR at 10 uM by microplate scintillation counting
Sequence of Tyrosine-protein kinase Fgr (Homo sapiens) (P09769 2-529 limits assumed): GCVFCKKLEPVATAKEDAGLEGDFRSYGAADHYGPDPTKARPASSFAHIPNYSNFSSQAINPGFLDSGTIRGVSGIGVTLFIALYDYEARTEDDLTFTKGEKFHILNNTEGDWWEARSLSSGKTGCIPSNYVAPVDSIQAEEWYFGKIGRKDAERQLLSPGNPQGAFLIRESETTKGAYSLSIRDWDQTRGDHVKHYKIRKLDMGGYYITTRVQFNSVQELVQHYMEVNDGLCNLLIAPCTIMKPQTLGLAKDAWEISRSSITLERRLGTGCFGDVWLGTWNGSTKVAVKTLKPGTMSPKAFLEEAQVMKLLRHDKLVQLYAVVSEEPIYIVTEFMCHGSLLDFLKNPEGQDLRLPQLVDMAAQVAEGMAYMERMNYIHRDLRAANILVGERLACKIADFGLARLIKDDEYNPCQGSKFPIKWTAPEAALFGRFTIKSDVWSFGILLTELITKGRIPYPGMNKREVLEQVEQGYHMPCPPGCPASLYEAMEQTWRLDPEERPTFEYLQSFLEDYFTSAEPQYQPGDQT

Sequence of Eukaryotic translation initiation factor 2-alpha kinase 1 (Homo sapiens) (Q9BQI3 whole entry): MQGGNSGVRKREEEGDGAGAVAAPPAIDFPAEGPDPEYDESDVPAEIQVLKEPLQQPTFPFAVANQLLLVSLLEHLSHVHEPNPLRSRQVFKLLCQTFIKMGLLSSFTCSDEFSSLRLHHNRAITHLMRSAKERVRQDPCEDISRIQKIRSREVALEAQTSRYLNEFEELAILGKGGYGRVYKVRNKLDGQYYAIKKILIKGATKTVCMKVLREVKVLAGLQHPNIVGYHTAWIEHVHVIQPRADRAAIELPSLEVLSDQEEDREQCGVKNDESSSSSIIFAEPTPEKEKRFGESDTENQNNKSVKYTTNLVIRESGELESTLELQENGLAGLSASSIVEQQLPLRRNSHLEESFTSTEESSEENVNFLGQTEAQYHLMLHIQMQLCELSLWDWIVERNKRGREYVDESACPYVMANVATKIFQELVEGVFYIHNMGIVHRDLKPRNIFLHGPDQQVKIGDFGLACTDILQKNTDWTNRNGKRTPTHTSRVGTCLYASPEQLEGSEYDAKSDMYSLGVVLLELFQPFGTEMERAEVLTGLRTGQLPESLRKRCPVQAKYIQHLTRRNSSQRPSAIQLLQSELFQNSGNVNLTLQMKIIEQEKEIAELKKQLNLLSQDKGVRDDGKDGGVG
Sequence of Tyrosine-protein kinase Lyn (Homo sapiens) (P07948 2-512 limits assumed): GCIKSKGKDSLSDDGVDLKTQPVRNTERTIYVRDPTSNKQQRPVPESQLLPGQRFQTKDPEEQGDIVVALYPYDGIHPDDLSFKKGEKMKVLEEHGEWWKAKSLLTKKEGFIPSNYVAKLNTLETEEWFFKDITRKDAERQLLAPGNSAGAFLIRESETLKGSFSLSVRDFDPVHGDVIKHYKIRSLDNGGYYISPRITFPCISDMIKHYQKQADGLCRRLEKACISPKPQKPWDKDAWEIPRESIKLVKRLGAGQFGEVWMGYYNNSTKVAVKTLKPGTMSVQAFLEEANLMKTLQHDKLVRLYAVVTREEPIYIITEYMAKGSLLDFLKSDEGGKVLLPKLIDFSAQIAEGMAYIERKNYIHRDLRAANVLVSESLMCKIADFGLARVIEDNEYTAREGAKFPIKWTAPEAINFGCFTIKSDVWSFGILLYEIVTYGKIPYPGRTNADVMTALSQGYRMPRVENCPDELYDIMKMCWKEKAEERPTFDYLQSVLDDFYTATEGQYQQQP
Sequence of Death-associated protein kinase 3 (Homo sapiens) (O43293 whole entry, looked up): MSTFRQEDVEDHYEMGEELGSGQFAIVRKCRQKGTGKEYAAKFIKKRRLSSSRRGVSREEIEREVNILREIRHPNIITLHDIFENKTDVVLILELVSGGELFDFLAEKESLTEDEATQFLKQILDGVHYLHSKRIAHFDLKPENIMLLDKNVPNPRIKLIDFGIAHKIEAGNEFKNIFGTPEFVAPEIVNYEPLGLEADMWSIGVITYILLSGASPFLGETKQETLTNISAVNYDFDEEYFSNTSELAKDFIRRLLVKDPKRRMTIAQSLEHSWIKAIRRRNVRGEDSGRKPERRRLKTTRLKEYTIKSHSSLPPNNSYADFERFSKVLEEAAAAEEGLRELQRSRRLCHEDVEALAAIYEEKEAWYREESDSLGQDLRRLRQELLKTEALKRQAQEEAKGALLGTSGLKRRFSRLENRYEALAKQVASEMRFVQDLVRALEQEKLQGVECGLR

SMILES	residual activity [1] [%]	residual activity [2] [%]	residual activity [3] [%]	residual activity [4] [%]	residual activity [5] [%]	residual activity [6] [%]	residual activity [7] [%]	residual activity [8] [%]
COc1cc2c(Oc3ccc(-c4nc5ccccc5s4)cc3)ncnc2cc1OCCCN1CCN(C)CC1	112	113	84	84	120	102	128	82
COc1cc2c(Oc3ccc(-c4nc5ccccc5s4)cc3)ncnc2cc1OCCCN1CCCC1	108	92	86	79	106	110	142	90
COc1cc2c(Oc3ccc(-c4nc5ccccc5s4)cc3F)ncnc2cc1OCCCN1CCN(C)CC1	102	98	81	73	115	103	135	24
